20 molecules from patent US20240059698A1 (Accutar Biotechnology Inc., priority 2022, published 2024) can be followed below.

What all share (assay type): cell-based
For one experiment, the system named is HCC827 cells. In words: Cell growth inhibition (CellTiter-Glo), HCC827. The note with it: Homo sapiens, 72 h, 3 days. The procedure: 2. Cell Growth Inhibition for HCC827, HCC827-SVD, HCC827-ASV, HCC827-YVMA, and A431.
HCC827(ATCC), HCC827-SVD, HCC827-ASV, and HCC827-YVMA cells were seeded in 96-well plates at 5000 cells/well in 90 μL of RPMI growth medium containing 10% FBS and 1% Penicillin Streptomycin. A431 (ATCC) cells were seeded in 96-well plates at 5000 cells/well in 90 μL of DMEM growth medium containing 10% FBS and 1% Penicillin Streptomycin. Cells were incubated at 37° C. overnight and then administered with 10 μL 10× test compounds prepared in the growth medium at various concentrations. After administration of the compounds, cells were incubated at 37° C. for 3 days. Before the CellTiter-Glo assay, the plates were equilibrated at room temperature for approximately 30 minutes. 100 ul of CellTiter-Glo reagent (Promega) was added to each well. The plates were then incubated at room temperature for 10 minutes and luminescence was recorded by the EnSight® multimode plate reader (PerkinElmer). Table 7 listed selected compounds in cellular growth assay.
On the technique in general: Cellular ATP, detected with luciferase, serves as a proxy for viable cell number.

The subject of experiment [1] is HCC827-SVD cells (human EGFR exon 20 insertion mutant D770_N771insSVD). In words: Cell growth inhibition (CellTiter-Glo), HCC827-SVD. Particulars: 72 h, 3 days. A digest of the protocol: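 HCC827 cells with endogenous EGFR knocked out and lentivirally expressing the insertion mutant (single clone) were seeded at 5000 cells/well in RPMI with 10% FBS. After overnight, compounds added; 3 days at 37 °C, then CellTiter-Glo luminescence.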

For experiment [2], the system named is HCC827-YVMA cells (human ERBB2 exon20 insertion mutant A775_G776ins YVMA). Description: Cell growth inhibition (CellTiter-Glo), HCC827-YVMA. Particulars: 72 h, HCC827-YVMA cells, 3 days, CellTiter-Glo, read-out: Cell growth inhibition, GI50 (nM) HCC827-YVMA. A digest of the protocol:
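HCC827 cells transduced with lentiviral codon-optimized mutant (ERBB2 A775_G776insYVMA or EGFR V769_D770insASV), endogenous EGFR knocked out by CRISPR, single clone selected. Cells seeded overnight in RPMI/10% FBS, then exposed to serially diluted compounds at 37 °C for 3 days; viability read by CellTiter-Glo luminescence.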

Structures are written as SMILES.

For `C=CC(=O)N1CCC(c2c[nH]c3ncnc(Nc4ccc(OC5CCCN(S(=O)(=O)c6ccccc6)C5)cc4F)c23)CC1` (stereo in doubt) [Compound 124, (S)-1-(4-(4-((2-fluoro-4-((1-(phenylsulfonyl)piperidin-3-yl)oxy)phenyl)amino)-7H-pyrrolo[2,3-d]pyrimidin-5-yl)piperidin-1-yl)prop-2-en-1-one], the GI50 was 200 to 1000 nM in the experiment with HCC827 cells, 200 to 1000 nM in experiment [1] and 50 to 200 nM in experiment [2].
Take `C=CC(=O)N1CCC(c2c[nH]c3ncnc(Nc4ccc(Oc5ccnc(NC(=O)C(C)(C)C)c5)cc4F)c23)CC1` [Compound 91, N-(4-(4-((5-(1-acryloylpiperidin-4-yl)-7H-pyrrolo[2,3-d]pyrimidin-4-yl)amino)-3-fluorophenoxy)pyridin-2-yl)pivalamide]: the values for the GI50 in experiment [1] and in experiment [2] were 200 to 1000 nM and under 50 nM, respectively.
For `C=CC(=O)N1CCC(c2c[nH]c3ncnc(Nc4ccc(OCc5ccnc(-n6ccc(OC)n6)c5)cc4F)c23)CC1` [Compound 92, 1-(4-(4-((2-fluoro-4-((2-(3-methoxy-1H-pyrazol-1-yl)pyridin-4-yl)methoxy)phenyl)amino)-7H-pyrrolo[2,3-d]pyrimidin-5-yl)piperidin-1-yl)prop-2-en-1-one], the GI50 (in the experiment with HCC827 cells; in experiment [1]; in experiment [2]) was 50 to 200 nM each time.
With `C=CC(=O)N1CCC(c2c[nH]c3ncnc(Nc4ccc(OCc5ccnc(Nc6ccccn6)c5)cc4F)c23)CC1` [Compound 93, 1-(4-(4-((2-fluoro-4-((2-(pyridin-2-ylamino)pyridin-4-yl)methoxy)phenyl)amino)-7H-pyrrolo[2,3-d]pyrimidin-5-yl)piperidin-1-yl)prop-2-en-1-one], the GI50 (in the experiment on HCC827 cells; in experiment [1]; in experiment [2]) was 50 to 200 nM throughout.
For `C=CC(=O)N1CCC(c2c[nH]c3ncnc(Nc4ccc(OCc5nccn5C)c(Cl)c4)c23)CC1` [Compound 94, 1-(4-(4-((3-chloro-4-((1-methyl-1H-imidazol-2-yl)methoxy)phenyl)amino)-7H-pyrrolo[2,3-d]pyrimidin-5-yl)piperidin-1-yl)prop-2-en-1-one], the GI50 (in the experiment with HCC827 cells; in experiment [1]; in experiment [2]) was 50 to 200 nM throughout.
For `C=CC(=O)N1CCC(c2c[nH]c3ncnc(Nc4ccc(OCc5ncco5)c(Cl)c4)c23)CC1` [Compound 95, 1-(4-(4-((3-chloro-4-(oxazol-2-ylmethoxy)phenyl)amino)-7H-pyrrolo[2,3-d]pyrimidin-5-yl)piperidin-1-yl)prop-2-en-1-one], the GI50 (in the experiment on HCC827 cells; in experiment [1]; in experiment [2]) was under 50 nM throughout.
As to `C=CC(=O)N1CCC(c2c[nH]c3ncnc(Nc4ccc(OCc5ccc(-c6ccccc6)nc5)cc4F)c23)CC1` [Compound 96, 1-(4-(4-((2-fluoro-4-((6-phenylpyridin-3-yl)methoxy)phenyl)amino)-7H-pyrrolo[2,3-d]pyrimidin-5-yl)piperidin-1-yl)prop-2-en-1-one], the GI50 is 200 to 1000 nM in the experiment on HCC827 cells, over 1000 nM in experiment [1] and 200 to 1000 nM in experiment [2].
Take `C=CC(=O)N1CCC(c2c[nH]c3ncnc(Nc4ccc(OCc5ccnc(-c6ccccc6)c5)cc4F)c23)CC1` [Compound 97, 1-(4-(4-((2-fluoro-4-((2-phenylpyridin-4-yl)methoxy)phenyl)amino)-7H-pyrrolo[2,3-d]pyrimidin-5-yl)piperidin-1-yl)prop-2-en-1-one]: the GI50 (in the experiment with HCC827 cells; in experiment [1]; in experiment [2]) was 200 to 1000 nM in each case.
Consider `C=CC(=O)N1CCC(c2c[nH]c3ncnc(Nc4ccc(OCc5cccc(C)n5)c(Cl)c4)c23)CC1` [Compound 98, 1-(4-(4-((3-chloro-4-((6-methylpyridin-2-yl)methoxy)phenyl)amino)-7H-pyrrolo[2,3-d]pyrimidin-5-yl)piperidin-1-yl)prop-2-en-1-one], for which the 50% growth inhibitory concentration (GI50) (with HCC827 cells; in experiment [1]; in experiment [2]) was under 50 nM each time.
Consider `C=CC(=O)N1CCC(c2c[nH]c3ncnc(Nc4ccc(OCc5ccc(OC)cn5)c(Cl)c4)c23)CC1` [Compound 99, 1-(4-(4-((3-chloro-4-((5-methoxypyridin-2-yl)methoxy)phenyl)amino)-7H-pyrrolo[2,3-d]pyrimidin-5-yl)piperidin-1-yl)prop-2-en-1-one], for which the GI50 is 50 to 200 nM in the experiment on HCC827 cells, 50 to 200 nM in experiment [1] and under 50 nM in experiment [2].
For `C=CC(=O)N1CCC(c2c[nH]c3ncnc(Nc4ccc(OCc5cc(C#N)ccn5)c(Cl)c4)c23)CC1` [Compound 100, 2-((4-((5-(1-acryloylpiperidin-4-yl)-7H-pyrrolo[2,3-d]pyrimidin-4-yl)amino)-2-chlorophenoxy)methyl)isonicotinonitrile], the GI50 (with HCC827 cells; in experiment [1]; in experiment [2]) was under 50 nM throughout.
For `C=CC(=O)N1CCC(c2c[nH]c3ncnc(Nc4ccc(OCc5ccc(C#N)cn5)c(Cl)c4)c23)CC1` [Compound 101, 6-((4-((5-(1-acryloylpiperidin-4-yl)-7H-pyrrolo[2,3-d]pyrimidin-4-yl)amino)-2-chlorophenoxy)methyl)nicotinonitrile], the GI50 (in the experiment with HCC827 cells; in experiment [1]; in experiment [2]) was 50 to 200 nM in each case.
Take `C=CC(=O)N1CCC(c2c[nH]c3ncnc(Nc4ccc(OCc5cn6ccccc6n5)c(Cl)c4)c23)CC1` [Compound 102, 1-(4-(4-((3-chloro-4-(imidazo[1,2-a]pyridin-2-ylmethoxy)phenyl)amino)-7H-pyrrolo[2,3-d]pyrimidin-5-yl)piperidin-1-yl)prop-2-en-1-one]: the values for the GI50 (in the experiment with HCC827 cells; in experiment [1]; in experiment [2]) were 50 to 200 nM, 50 to 200 nM and under 50 nM, respectively.
As to `C=CC(=O)N1CCC(c2c[nH]c3ncnc(Nc4ccc(Oc5ccnc(N6CC(N(C)C)C6)c5)cc4F)c23)CC1` [Compound 129, 1-(4-(4-((4-((2-(3-(dimethylamino)azetidin-1-yl)pyridin-4-yl)oxy)-2-fluorophenyl)amino)-7H-pyrrolo[2,3-d]pyrimidin-5-yl)piperidin-1-yl)prop-2-en-1-one], the GI50 in experiment [1] and in experiment [2] was 200 to 1000 nM in each case.
As for `C=CC(=O)N1CCC(c2c[nH]c3ncnc(Nc4ccc(Oc5ccnc(N6CC(O)(C(C)C)C6)c5)cc4F)c23)CC1` [Compound 130, 1-[4-[4-[2-fluoro-4-[[2-(3-hydroxy-3-isopropyl-azetidin-1-yl)-4-pyridyl]oxy]anilino]-7H-pyrrolo[2,3-d]pyrimidin-5-yl]-1-piperidyl]prop-2-en-1-one], the GI50 in experiment [1] and in experiment [2] was 50 to 200 nM in each case.
With `C=CC(=O)N1CCC(c2csc3ncnc(Nc4ccc(Oc5ccnc(NC(=O)C6CCCC6)c5)cc4F)c23)CC1` [Compound 161, N-(4-(4-((5-(1-acryloylpiperidin-4-yl)thieno[2,3-d]pyrimidin-4-yl)amino)-3-fluorophenoxy)pyridin-2-yl)cyclopentanecarboxamide], the GI50 lay within 200 to 1000 nM in experiment [1] and 50 to 200 nM in experiment [2].
The corresponding values for `C=CC(=O)N1CCC(c2csc3ncnc(Nc4ccc(Oc5ccnc(NC(=O)C(C)(C)C)c5)cc4F)c23)CC1` [Compound 162, N-(4-(4-((5-(1-acryloylpiperidin-4-yl)thieno[2,3-d]pyrimidin-4-yl)amino)-3-fluorophenoxy)pyridin-2-yl)pivalamide] are over 1000 nM and 200 to 1000 nM.
The corresponding values for `C=CC(=O)N1CCC(c2n[nH]c3ncnc(Nc4ccc(Oc5cccc(S(=O)(=O)NC6CC(F)(F)C6)c5)cc4F)c23)CC1` [Compound 185, 3-(4-((3-(1-acryloylpiperidin-4-yl)-1H-pyrazolo[3,4-d]pyrimidin-4-yl)amino)-3-fluorophenoxy)-N-(3,3-difluorocycloButyl)benzenesulfonamide] are 50 to 200 nM and 50 to 200 nM.
The corresponding values for `C=CC(=O)N1CCC(c2n[nH]c3ncnc(Nc4ccc(Oc5ccnc(NC(=O)C(C)(C)C)c5)cc4F)c23)CC1` [Compound 192, N-(4-(4-((3-(1-acryloylpiperidin-4-yl)-1H-pyrazolo[3,4-d]pyrimidin-4-yl)amino)-3-fluorophenoxy)pyridin-2-yl)pivalamide] are 50 to 200 nM and 50 to 200 nM.
As for `C=CC(=O)N1CCC(c2n[nH]c3ncnc(Nc4ccc(Oc5ccnc(NC(=O)c6cnn(C)c6)c5)cc4F)c23)CC1` [Compound 196, N-(4-(4-((3-(1-acryloylpiperidin-4-yl)-1H-pyrazolo[3,4-d]pyrimidin-4-yl)amino)-3-fluorophenoxy)pyridin-2-yl)-1-methyl-1H-pyrazole-4-carboxamide], the GI50 in experiment [1] and in experiment [2] was 200 to 1000 nM each time.

For orientation: GI50 means the concentration at which growth is held to half of that of the control.
